PubChem BioAssay (NCI)
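Step 1: Grow cells in 96-well plates. Step 2: Expose to compound for 48 hours at 5 concentrations. Step 3: Interpolate endpoints linearly; if unreached, use highest concentration. TGI marks complete inhibition of growth.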

Tests used:
Test in all cases: DTP human tumour cell line panel, 48 h
SR leukemia = system: SR leukemia
OVCAR-4 ovarian = system: OVCAR-4 ovarian
U251 CNS = system: U251 CNS
SF-539 CNS = system: SF-539 CNS
HS 578T breast = system: HS 578T breast
K-562 leukemia = system: K-562 leukemia
CAKI-1 renal = system: CAKI-1 renal
SK-MEL-28 melanoma = system: SK-MEL-28 melanoma
SK-MEL-2 melanoma = system: SK-MEL-2 melanoma
MDA-MB-231 breast = system: MDA-MB-231 breast
PC-3 prostate = system: PC-3 prostate
NCI-H522 lung = system: NCI-H522 lung
HOP-62 NSCLC = system: HOP-62 NSCLC
DU-145 prostate = system: DU-145 prostate
BT-549 breast = system: BT-549 breast
HCT-116 colon = system: HCT-116 colon
NCI-H226 lung = system: NCI-H226 lung
SK-MEL-5 melanoma = system: SK-MEL-5 melanoma
SF-268 CNS = system: SF-268 CNS
OVCAR-3 ovarian = system: OVCAR-3 ovarian
OVCAR-8 ovarian = system: OVCAR-8 ovarian
SF-295 CNS = system: SF-295 CNS
UACC-257 melanoma = system: UACC-257 melanoma
SW-620 colon = system: SW-620 colon
UACC-62 melanoma = system: UACC-62 melanoma
ACHN renal = system: ACHN renal
NCI-H23 lung = system: NCI-H23 lung
NCI/ADR-RES ovarian = system: NCI/ADR-RES ovarian
NCI-H460 lung = system: NCI-H460 lung
RXF 393 renal = system: RXF 393 renal
HT29 colon = system: HT29 colon
SNB-19 CNS = system: SNB-19 CNS
KM12 colon = system: KM12 colon
SN12C renal = system: SN12C renal
IGROV1 ovarian = system: IGROV1 ovarian
HL-60(TB) leukemia = system: HL-60(TB) leukemia
M14 melanoma = system: M14 melanoma
SK-OV-3 ovarian = system: SK-OV-3 ovarian
T-47D breast = system: T-47D breast
MDA-MB-435 = system: MDA-MB-435
A549 NSCLC = system: A549 NSCLC
TK-10 renal = system: TK-10 renal
A498 renal = system: A498 renal
UO-31 renal = system: UO-31 renal
786-0 renal = system: 786-0 renal
MDA-N = system: MDA-N
HOP-92 NSCLC = system: HOP-92 NSCLC
RPMI-8226 leukemia = system: RPMI-8226 leukemia
EKVX NSCLC = system: EKVX NSCLC
LOX IMVI melanoma = system: LOX IMVI melanoma
MOLT-4 leukemia = system: MOLT-4 leukemia
CCRF-CEM leukemia = system: CCRF-CEM leukemia
HCT-15 colon = system: HCT-15 colon
MALME-3M melanoma = system: MALME-3M melanoma
OVCAR-5 ovarian = system: OVCAR-5 ovarian
COLO 205 colon = system: COLO 205 colon

Measured: TGI

Cc1ccc2c(c1)NC(=O)CCSSCCC(=O)N2
> 100 µM: all assays above
